Test results taken from ChEMBL document CHEMBL1275247, “Pharmacokinetics and safety of CXA-101, a new antipseudomonal cephalosporin, in healthy adult male and female subjects receiving single- and multiple-dose intravenous infusions” (Antimicrob Agents Chemother, 2010).

Tests used:
[1] = Cmax in healthy human at 500 mg, iv administered as 1 hr infusion every 8 hrs for 10 days measured on day 1; type: ADME, organism-based; design: dose 500 mg, route intravenous; conditions: in vivo
[2] = AUC (0 to infinity) in healthy human at 1500 mg, iv administered as 1 hr infusion every 12 hrs for 10 days measured on day 10; type: ADME, organism-based; design: dose 1500 mg, route intravenous, time infinity; conditions: plasma
[3] = Mean residence time in healthy human at 500 mg, iv administered as 1 hr infusion every 8 hrs for 10 days measured on day 1; type: ADME, organism-based; conditions: in vivo
Homo sapiens [4] = assay: Toxicity in healthy human assessed as occurrence of paraesthesia at 500 mg, iv administered as 1 hr infusion every 8 hrs for 10 days; type: organism-based; conditions: in vivo
[5] = Tmax in healthy human at 2000 mg, iv administered as single dose as 1 hr iv infusion; type: ADME, organism-based; conditions: in vivo
[6] = Half-life in plasma of healthy human 1500 mg, iv administered as 1 hr infusion every 12 hrs for 10 days measured on day 10; type: ADME, organism-based
[7] = AUC (0 to infinity) in healthy human at 1000 mg, iv administered as single dose as 1 hr iv infusion; type: ADME, organism-based; design: dose 1000 mg, route intravenous, time infinity; conditions: plasma
[8] = Clearance in healthy human at 1000 mg, iv administered as 1 hr infusion every 8 hrs for 10 days measured on day 1; type: ADME, organism-based; conditions: in vivo
Homo sapiens [9] = assay: Toxicity in healthy human assessed as occurrence of vulvo-vaginal pruritus at 1500 mg, iv administered as single dose as 1 hr iv infusion; type: organism-based; conditions: in vivo
[10] = Volume of distribution at steady state in healthy human at 500 mg, iv administered as 1 hr infusion every 8 hrs for 10 days measured on day 10; type: ADME, organism-based; conditions: in vivo
[11] = Renal clearance in healthy human at 250 mg, iv administered as single dose as 1 hr iv infusion; type: ADME, organism-based, Kidney; conditions: in vivo, read-out: CL_renal
[12] = Drug recovery in urine of healthy human at 500 mg, iv administered as 1 hr infusion every 8 hrs for 10 days measured on day 10; type: ADME, organism-based; conditions: read-out: Activity
[13] = Drug recovery in urine of healthy human at 2000 mg, iv administered as single dose as 1 hr iv infusion after 24 hrs; type: ADME, organism-based; conditions: read-out: Activity
[14] = Cmax in healthy human at 1000 mg, iv administered as 1 hr infusion every 8 hrs for 10 days measured on day 1; type: ADME, organism-based; design: dose 1000 mg, route intravenous; conditions: in vivo
[15] = Renal clearance in healthy human at 1500 mg, iv administered as single dose as 1 hr iv infusion; type: ADME, organism-based, Kidney; conditions: in vivo, read-out: CL_renal
[16] = Cmax in healthy human at 1500 mg, iv administered as single dose as 1 hr iv infusion; type: ADME, organism-based; design: dose 1500 mg, route intravenous; conditions: in vivo
Homo sapiens [17] = assay: Toxicity in healthy human assessed as occurrence of abdominal pain at 1000 mg, iv administered as single dose as 1 hr iv infusion; type: organism-based, Abdomen; conditions: in vivo
[18] = Tmax in healthy human at 1000 mg, iv administered as single dose as 1 hr iv infusion; type: ADME, organism-based; conditions: in vivo
[19] = Clearance in healthy human at 500 mg, iv administered as 1 hr infusion every 8 hrs for 10 days measured on day 10; type: ADME, organism-based; conditions: in vivo
[20] = Half-life in plasma of healthy human 1500 mg, iv administered as 1 hr infusion every 12 hrs for 10 days measured on day 1; type: ADME, organism-based
[21] = Tmax in healthy human at 1000 mg, iv administered as 1 hr infusion every 8 hrs for 10 days measured on day 10; type: ADME, organism-based; conditions: in vivo
[22] = Cmax in healthy human at 1000 mg, iv administered as 1 hr infusion every 8 hrs for 10 days measured on day 10; type: ADME, organism-based; design: dose 1000 mg, route intravenous; conditions: in vivo
Homo sapiens [23] = assay: Toxicity in healthy human assessed as occurrence of somnolence at 1000 mg, iv administered as single dose as 1 hr iv infusion; type: organism-based; conditions: in vivo
[24] = Clearance in healthy human at 1000 mg, iv administered as single dose as 1 hr iv infusion; type: ADME, organism-based; conditions: in vivo
[25] = Volume of distribution at steady state in healthy human at 1500 mg, iv administered as single dose as 1 hr iv infusion; type: ADME, organism-based; conditions: in vivo
[26] = Volume of distribution at steady state in healthy human at 250 mg, iv administered as single dose as 1 hr iv infusion; type: ADME, organism-based; conditions: in vivo
[27] = AUC (0 to infinity) in healthy human at 500 mg, iv administered as 1 hr infusion every 8 hrs for 10 days measured on day 10; type: ADME, organism-based; design: dose 500 mg, time infinity, route intravenous; conditions: plasma
[28] = Drug recovery in urine of healthy human at 1000 mg, iv administered as 1 hr infusion every 8 hrs for 10 days measured on day 10; type: ADME, organism-based; conditions: read-out: Activity
Homo sapiens [29] = assay: Toxicity in healthy human assessed as occurrence of headache at 1500 mg, iv administered as single dose as 1 hr iv infusion; type: organism-based; conditions: in vivo
[30] = Drug recovery in urine of healthy human at 1500 mg, iv administered as single dose as 1 hr iv infusion after 24 hrs; type: ADME, organism-based; conditions: read-out: Activity
[31] = Tmax in healthy human at 1500 mg, iv administered as 1 hr infusion every 12 hrs for 10 days measured on day 1; type: ADME, organism-based; conditions: in vivo
[32] = Cmax in healthy human at 1500 mg, iv administered as 1 hr infusion every 12 hrs for 10 days measured on day 10; type: ADME, organism-based; design: dose 1500 mg, route intravenous; conditions: in vivo
[33] = Clearance in healthy human at 1500 mg, iv administered as 1 hr infusion every 12 hrs for 10 days measured on day 1; type: ADME, organism-based; conditions: in vivo
[34] = AUC (0 to infinity) in healthy human at 1500 mg, iv administered as single dose as 1 hr iv infusion; type: ADME, organism-based; design: dose 1500 mg, time infinity, route intravenous; conditions: plasma
Homo sapiens [35] = assay: Toxicity in healthy human assessed as occurrence of diarrhea at 500 mg, iv administered as 1 hr infusion every 8 hrs for 10 days; type: organism-based; conditions: in vivo
Homo sapiens [36] = assay: Toxicity in healthy human assessed as occurrence of hypoaesthesia at 500 mg, iv administered as 1 hr infusion every 8 hrs for 10 days; type: organism-based; conditions: in vivo
[37] = Cmax in healthy human at 1500 mg, iv administered as 1 hr infusion every 12 hrs for 10 days measured on day 1; type: ADME, organism-based; design: dose 1500 mg, route intravenous; conditions: in vivo
[38] = Tmax in healthy human at 1000 mg, iv administered as 1 hr infusion every 8 hrs for 10 days measured on day 1; type: ADME, organism-based; conditions: in vivo
[39] = Drug recovery in urine of healthy human at 1000 mg, iv administered as 1 hr infusion every 8 hrs for 10 days measured on day 1; type: ADME, organism-based; conditions: read-out: Activity
[40] = Renal clearance in healthy human at 500 mg, iv administered as single dose as 1 hr iv infusion; type: ADME, organism-based, Kidney; conditions: in vivo, read-out: CL_renal
[41] = Renal clearance in healthy human at 1500 mg, iv administered as 1 hr infusion every 12 hrs for 10 days measured on day 10; type: ADME, organism-based, Kidney; conditions: in vivo, read-out: CL_renal
[42] = Renal clearance in healthy human at 500 mg, iv administered as 1 hr infusion every 8 hrs for 10 days measured on day 1; type: ADME, organism-based, Kidney; conditions: in vivo, read-out: CL_renal
[43] = Mean residence time in healthy human at 1500 mg, iv administered as 1 hr infusion every 12 hrs for 10 days measured on day 1; type: ADME, organism-based; conditions: in vivo
[44] = Half-life in plasma of healthy human 500 mg administered as single ascending dose, iv for 1 hr infusion; type: ADME, organism-based
[45] = Clearance in healthy human at 500 mg, iv administered as 1 hr infusion every 8 hrs for 10 days measured on day 1; type: ADME, organism-based; conditions: in vivo

Cn1c(N)c(NC(=O)NCCN)c[n+]1CC1=C(C(=O)O)N2C(=O)[C@@H](NC(=O)/C(=N\OC(C)(C)C(=O)[O-])c3nsc(N)n3)[C@H]2SC1 [CEFTOLOZANE]
Cmax [1]: 34.3 µg/mL | AUC(0-inf) [2]: 207 µg·h/mL | MRT [3]: 2.42 h | Activity (Homo sapiens [4]): Non-toxic | Tmax [5]: 1.06 h | half-life [6]: 2.34 h | AUC(0-inf) [7]: 152 µg·h/mL | clearance [8]: 112 mL/min | Activity (Homo sapiens [9]): Non-toxic | Vd [10]: 14 L | CL renal at 1 h [11]: 101 mL/min | dose excreted at 10 day [12]: 84.6% | dose excreted at 24 h [13]: 97.7% | Cmax [14]: 52.8 µg/mL | CL renal at 1 h [15]: 96.2 mL/min | Cmax [16]: 87.4 µg/mL | Activity (Homo sapiens [17]): Non-toxic | Tmax [18]: 1.05 h | clearance [19]: 101 mL/min | half-life [20]: 2.72 h | Tmax [21]: 1.05 h | Cmax [22]: 58 µg/mL | Activity (Homo sapiens [23]): Non-toxic | clearance [24]: 110 mL/min | Vd [25]: 17.6 L | Vd [26]: 13.1 L | AUC(0-inf) [27]: 82.9 µg·h/mL | dose excreted at 10 day [28]: 94.1% | Activity (Homo sapiens [29]): Non-toxic | dose excreted at 24 h [30]: 93.4% | Tmax [31]: 1.03 h | Cmax [32]: 82.6 µg/mL | clearance [33]: 114 mL/min | AUC(0-inf) [34]: 243 µg·h/mL | Activity (Homo sapiens [35]): Non-toxic | Activity (Homo sapiens [36]): Non-toxic | Cmax [37]: 85.4 µg/mL | Tmax [38]: 1.03 h | dose excreted at 1 day [39]: 99.4% | CL renal at 1 h [40]: 90.4 mL/min | CL renal [41]: 127 mL/min | CL renal [42]: 78.4 mL/min | MRT [43]: 2.64 h | half-life [44]: 2.34 h | clearance [45]: 94.6 mL/min
